Data: patent EP2108954A1, “A test system for detecting intracellular cyclic nucleotide level and methods and uses thereof” (Max-Planck-Gesellschaft zur Förderung der Wissenschaften …, priority 2008, dated 2009)
Like-named read-outs stand apart in the source and are kept apart here.

Target: T1, Or22a and Or83b (Drosophila melanogaster, UniProt P81909+Q9VNB5)
T1 construct: expressed in transfected cells; host or cells: HEK293
T1 sequence (P81909 1-397): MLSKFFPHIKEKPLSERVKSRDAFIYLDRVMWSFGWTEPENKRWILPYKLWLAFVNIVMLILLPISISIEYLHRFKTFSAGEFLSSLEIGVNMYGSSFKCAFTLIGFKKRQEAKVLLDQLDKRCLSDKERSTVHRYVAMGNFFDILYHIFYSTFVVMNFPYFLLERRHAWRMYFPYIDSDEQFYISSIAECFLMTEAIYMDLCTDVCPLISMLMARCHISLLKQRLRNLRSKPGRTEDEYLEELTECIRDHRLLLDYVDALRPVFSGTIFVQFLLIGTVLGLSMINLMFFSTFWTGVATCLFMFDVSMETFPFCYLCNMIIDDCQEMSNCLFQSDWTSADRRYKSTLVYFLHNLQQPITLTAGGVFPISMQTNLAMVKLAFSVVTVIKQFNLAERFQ
T1 sequence (Q9VNB5 1-486): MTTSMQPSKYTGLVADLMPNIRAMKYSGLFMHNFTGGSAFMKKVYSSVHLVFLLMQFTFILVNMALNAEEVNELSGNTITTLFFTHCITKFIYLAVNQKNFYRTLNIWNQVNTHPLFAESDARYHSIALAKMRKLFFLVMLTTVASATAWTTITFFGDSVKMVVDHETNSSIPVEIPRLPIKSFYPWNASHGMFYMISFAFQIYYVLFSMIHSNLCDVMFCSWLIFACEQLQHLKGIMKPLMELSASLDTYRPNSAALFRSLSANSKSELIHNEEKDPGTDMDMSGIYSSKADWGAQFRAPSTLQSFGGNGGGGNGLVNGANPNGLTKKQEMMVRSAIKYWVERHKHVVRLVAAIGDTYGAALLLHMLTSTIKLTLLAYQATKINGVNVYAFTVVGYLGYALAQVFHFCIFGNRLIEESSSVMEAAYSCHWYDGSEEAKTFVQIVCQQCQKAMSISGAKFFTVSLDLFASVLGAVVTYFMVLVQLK
Assay: Whole-cell patch-clamp of currents in HEK293 cells coexpressing Or22a and Or83b
Type: cell-based
Description: In some experiments we transfected cells with pcDNA3-DOR22a-GFP or pcDNA3-DOR83b-GFP alone. We also examined the properties of DOR47a, which was cloned, using standard molecular biology methods into a pcDNA3.1(-) expression vector. To test for putative G-protein coupling, cells were transfected with the respective OR-DNA together with 1.5 µg hHCN2/pcDNA3 (provided by M. Biel, Munich, Germany), with 1 µg hKCNQ4/pcDNA3.1 or with 1 µg hCNGA2/pCMV6-XL4 (Origene, Rockville, MD, USA).
In brief, ion currents in HEK293 cells were measured at room temperature using whole-cell patch-clamp with appropriate compensation of series resistance and of capacitive currents. Additional experiments were performed in the outside-out configuration. Current measurements and data acquisition were performed using an EPC9 patch-clamp amplifier controlled by PatchMaster software (both HEKA Elektronik, Lambrecht, Germany). Patch-clamp pipettes were fabricated from borosilicate capillaries. Pipettes for whole-cell recordings had resistances of 2-4 MΩ for excised-patch recordings the pipette resistance was up to 15 MΩ.
To differentiate between ionotropic and metabotropic pathways of receptor activation (Fig. 2a-d) the pipette solution contained either 2 mM ATP plus 2 mM GTP or 2 mM ADP plus 2 mM GDP (both for whole-cell and outside-out configuration). For the preparation of Cl^--free solutions the chloride salts were substituted by gluconate salts. The pipette Cs^+ solution contained (in mM) 140 CsCl, 1 Mg-ATP, 10 EGTA, 10 HEPES (pH = 7.3), and the Cs^+ bath solution contained (in mM) 140 CsCl, 15 glucose, 15 HEPES (pH = 7.4). The Ca^2+-free bath solution contained (in mM) 140 NaCl, 15 glucose, 15 HEPES, and the Na^+-free bath solution contained (in mM) 140 NMDG-Cl, 10 CaCl2, 10 glucose, 15 HEPES.
With the exception of GDP-γ-S, which was applied via the patch pipette, all substances were applied to the bath using either a bath perfusion system (BPS4 from ALA, New York, USA) or a rapid solution changer (RSC160 from Biologic, Claix, France) which were controlled by the PatchMaster software (HEKA Elektronik).

[1] = Etb 100 nM, 1 s, whole-cell, -60 mV, Or22a C-terminal GFP fusion protein, ADP and GDP (-)
[2] = Etb 100 nM, 1 s, whole-cell, -60 mV, Or22a C-terminal GFP fusion protein, ATP and GTP (+)
[3] = Etb 100 nM, 1 s, whole-cell, -60 mV, Or22a N-terminal GFP fusion protein, ADP and GDP (-)
[4] = Etb 100 nM, 1 s, whole-cell, -60 mV, Or22a N-terminal GFP fusion protein, ATP and GTP (+)
[5] = short Etb application, whole-cell, -60 mV, Tab. 1
[6] = short Etb application, whole-cell, -60 mV, internal ATP and GTP, Tab. 1

SMILES: CCCC(=O)OCC [Etb, ethyl butyrate]
- further increase of current (100 µM Etb after stimulation with 100 µM 8-bromo-cAMP): +1.6 ± 3.8 % of current induced by 8-bromo-cAMP
- Etb-induced current in symmetrical Cs+ solutions (140 mM Cs+ in pipette and bath solution, n = 6): No current was detected
- EC50 (EC50 of Etb-induced currents, 500 µM GDP-β-S in the pipette, n = 11): 70 nM
- latency of Ii (Etb 100 nM, 1 s, whole-cell, -60 mV): < 0.5 s
- Ii Decay time [1]: 10.8 ± 0.6 s
- Ii Peak size [1]: 133 ± 51 pA
- Ii Peak time [1]: 1.13 ± 0.02 s
- Im Decay time [1]: 68 ± 8 s
- Im Latency [1]: 18 ± 8 s
- Im Peak size [1]: 77 ± 7 PA
- Im Peak time [1]: 43 ± 9 s
- Ii Decay time [2]: 10.5 ± 0.7 s
- Ii Peak size [2]: 100 ± 23 pA
- Ii Peak time [2]: 1.10 ± 0.03 s
- Im Decay time [2]: 79 ± 5 s
- Im Latency [2]: 10 ± 2 s
- Im Peak size [2]: 291 ± 54 PA
- Im Peak time [2]: 58 ± 4 s
- Ii Decay time [3]: 10.4 ± 0.9 s
- Ii Peak size [3]: 132 ± 38 pA
- Ii Peak time [3]: 0.90 ± 0.17 s
- Im Decay time [3]: 63 ± 9 s
- Im Latency [3]: 24 ± 5 s
- Im Peak size [3]: 51 ± 6 PA
- Im Peak time [3]: 44 ± 6 s
- Ii Decay time [4]: 10.2 ± 0.9 s
- Ii Peak size [4]: 98 ± 23 pA
- Ii Peak time [4]: 1.16 ± 0.06 s
- Im Decay time [4]: 80 ± 8 s
- Im Latency [4]: 11 ± 3 s
- Im Peak size [4]: 311 ± 51 PA
- Im Peak time [4]: 62 ± 9 s
- Hill coefficient of olfactory receptor current (ORC) (cells coexpressing Or22a, Or83b and hKCNQ4, n = 6): 0.41
- EC50 (cells coexpressing Or22a, Or83b and hKCNQ4, normalized to maximum response, n = 6, read-out: EC50 of olfactory receptor current (ORC)): 0.256 nM
- Hill coefficient of Etb-induced currents (control conditions, n = 9): 0.61
- EC50 (control conditions, n = 9, read-out: EC50 of Etb-induced currents): 0.677 nM
- EC50 (half-maximal effect (current size), metabotropic current response): ~0.7 nM
- odorant concentration at which current size saturates (metabotropic current response, Fig. 2f): about 100 nM
- odour-induced current in Cl^--free solutions (n = 5): remained unchanged
- Ii peak [5]: 1 s
- Ii termination [5]: 10 s
- Im Latency [6]: 10 s
- Im peak [6]: 60 s
- Im termination [6]: 80 s
